Results taken from ChEMBL document CHEMBL1121600, “Inhibitors of phenylethanolamine N-methyltransferase and epinephrine biosynthesis. 2. 1,2,3,4-Tetrahydroisoquinoline-7-sulfonanilides” (J Med Chem, 1980).

Legend:
Assay type in all cases: organism-based
[1] = biological target: T1, Phenylethanolamine N-methyltransferase (Mus musculus) (UniProt P40935); test: Phenylethanolamine N-Methyltransferase inhibition assay in a 7-day mouse study was determined by epinephrine level at 100 mg/kg dose; set-up: dose 100 mg/kg
T1 sequence (whole entry): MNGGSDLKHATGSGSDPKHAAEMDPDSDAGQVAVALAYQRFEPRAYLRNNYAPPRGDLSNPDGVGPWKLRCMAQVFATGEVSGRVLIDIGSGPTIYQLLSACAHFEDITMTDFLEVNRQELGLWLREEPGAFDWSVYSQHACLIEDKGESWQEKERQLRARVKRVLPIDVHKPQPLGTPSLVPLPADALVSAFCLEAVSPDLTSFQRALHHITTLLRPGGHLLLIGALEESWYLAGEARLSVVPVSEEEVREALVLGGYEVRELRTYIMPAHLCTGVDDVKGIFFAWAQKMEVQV

[2] = biological target: T2, Phenylethanolamine N-methyltransferase (Homo sapiens) (UniProt P11086); test: Epinephrine to norepinephrine ratio at 100 mg/kg dose; set-up: dose 100 mg/kg; settings: Oryctolagus cuniculus
T2 sequence (whole entry): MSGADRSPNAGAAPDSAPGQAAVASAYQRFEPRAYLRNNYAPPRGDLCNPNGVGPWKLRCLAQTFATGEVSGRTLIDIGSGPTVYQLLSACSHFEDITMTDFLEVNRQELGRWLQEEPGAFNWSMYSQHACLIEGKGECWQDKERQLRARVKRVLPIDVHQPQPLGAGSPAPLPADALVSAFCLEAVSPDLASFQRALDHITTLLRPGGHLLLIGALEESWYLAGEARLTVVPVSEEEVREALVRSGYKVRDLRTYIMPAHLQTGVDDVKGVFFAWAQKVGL

[3] = biological target: T1, Phenylethanolamine N-methyltransferase (Mus musculus); test: Phenylethanolamine N-Methyltransferase inhibition assay in a 7-day mouse study was determined by epinephrine level at 25 mg/kg dose; set-up: dose 25 mg/kg
[4] = biological target: T1, Phenylethanolamine N-methyltransferase (Mus musculus); test: Phenylethanolamine N-Methyltransferase inhibition assay in a 7-day mouse study was determined by epinephrine level at 50 mg/kg dose; set-up: dose 50 mg/kg

SMILES | Epinephrine level [1] | Ratio [2] | Epinephrine level [3] | Epinephrine level [4]
O=S(=O)(Nc1ccc(Br)cc1)c1ccc2c(c1)CNCC2 | 7 | 2.1 | – | –
O=S(=O)(Nc1ccc(Cl)cc1)c1ccc2c(c1)CNCC2 | – | – | 8 | –
NS(=O)(=O)c1ccc2c(c1)CNCC2 | 5.8 | – | 6.7 | 5.9
